According to US20230083885A1, “MODULATORS OF INTEGRATED STRESS RESPONSE PATHWAY” (Praxis Biotech LLC, priority 2021, published 2023):

test system: ATF4; test: ATF4 expression inhibition assay (ATF4 5'UTR luciferase reporter, thapsigargin-stressed); type: cell-based; details: Homo sapiens, HEK-293T, 3 h, read-out: ATF4 inhibition
Experimental: The ATF4 reporter was prepared by fusing the human full length 5′UTR of ATF4 (NCBI Accession No. BC022088.2) upstream of the firefly luciferase coding sequence lacking the initiator methionine. The fused sequence was cloned into pLenti-EF1a-C-Myc-DDK-IRES-Puro cloning vector (Origen #PS100085) using standard methods.
HEK293T cells carrying the ATF4 luciferase reporter were plated on 96-well plates (Nunc) at 10,000 cells per well. Cells were treated two days after seeding with 100 nM thapsigargin (Tg) (Sigma-Aldrich #T9033) in the presence of different concentrations of selected compounds ranging from 0.1 nM to 10 μM. Cells without treatment or cells treated with Tg alone were used as controls. Assay plates containing cells were incubated for 3 hours at 37° C.
Luciferase reactions were performed using Luciferase Assay System (Promega #E1501) as specified by the manufacturer. Luminescence was read with an integration time of 1 s and a gain of 110 using a Cytation-5 multi-mode microplate reader (BioTek).

| SMILES | IC50 |
| --- | --- |
| O=C(Nc1nc2cc(Cl)ccc2o1)[C@H]1CC[C@H](c2nnc(CO[C@H]3C[C@@H](OC(F)(F)F)C3)o2)CC1 [Compound 41, trans-N-(5-chlorobenzo[d]oxazol-2-yl)-4-(5-((cis-3-(trifluoromethoxy)cyclobutoxy)methyl)-1,3,4-oxadiazol-2-yl)cyclohexanecarboxamide] | 100 to 1000 nM |

same assay, conditions: Homo sapiens, HEK-293T; HEK293T cells carrying ATF4 luciferase reporter, 100 nM thapsigargin, 3 hours; read-out: ATF4 inhibition

| SMILES | IC50 |
| --- | --- |
| O=C(Nc1ccc2cc(Cl)ccc2n1)[C@H]1CC[C@H](c2nnc([C@@H]3CNc4cc(Cl)ccc4O3)o2)CC1 (single isomer, unassigned) [Compound 245] | 100 to 1000 nM |
| O=C(NC[C@H]1CC[C@H](c2nnc(-c3ccc(Cl)cc3)o2)CC1)c1ccc(C(F)(F)F)cn1 [Compound 20, trans-N-((4-(5-(4-chlorophenyl)-1,3,4-oxadiazol-2-yl)cyclohexyl)methyl)-5-(trifluoromethyl)picolinamide] | 100 to 1000 nM |
| O=C(NC[C@H]1CC[C@H](c2nnc(-c3ccc(Cl)cc3)o2)CC1)c1ccc(C(F)(F)F)nc1 [Compound 21, trans-N-((4-(5-(4-chlorophenyl)-1,3,4-oxadiazol-2-yl)cyclohexyl)methyl)-6-(trifluoromethyl)nicotinamide] | 100 to 1000 nM |
| O=C(Nc1ccc2cc(Cl)ccc2n1)[C@H]1CC[C@H](c2nnc(CO[C@H]3C[C@@H](OC(F)(F)F)C3)o2)CC1 [Compound 38, trans-N-(6-chloroquinolin-2-yl)-4-(5-((cis-3-(trifluoromethoxy)cyclobutoxy)methyl)-1,3,4-oxadiazol-2-yl)cyclohexanecarboxamide] | 100 to 1000 nM |
| O=C(Nc1nc2cc(Cl)ccc2s1)[C@H]1CC[C@H](c2nnc(CO[C@H]3C[C@@H](OC(F)(F)F)C3)o2)CC1 [Compound 39, trans-N-(5-chlorobenzo[d]thiazol-2-yl)-4-(5-((cis-3-(trifluoromethoxy)cyclobutoxy)methyl)-1,3,4-oxadiazol-2-yl)cyclohexanecarboxamide] | > 1000 nM |
| O=C(Nc1ccc2cc(Cl)ccc2n1)C1CCN(c2nnc(-c3ccc(Cl)cc3)o2)CC1 [Compound 49, 1-(5-(4-chlorophenyl)-1,3,4-oxadiazol-2-yl)-N-(6-chloroquinolin-2-yl)piperidine-4-carboxamide] | 100 to 1000 nM |
| O=C(NCc1cc2cc(Cl)ccc2o1)[C@H]1CC[C@H](c2nnc(COc3ccc(Cl)cc3)o2)CC1 [Compound 53, trans-N-((5-chlorobenzofuran-2-yl)methyl)-4-(5-((4-chlorophenoxy)methyl)-1,3,4-oxadiazol-2-yl)cyclohexanecarboxamide] | 100 to 1000 nM |
| O=C(NCc1cc2cc(Cl)ccc2o1)[C@H]1CC[C@H](c2nnc(-c3cc4cc(Cl)ccc4o3)o2)CC1 [Compound 54, trans-4-(5-(5-chlorobenzofuran-2-yl)-1,3,4-oxadiazol-2-yl)-N-((5-chlorobenzofuran-2-yl)methyl)cyclohexanecarboxamide] | 100 to 1000 nM |
| O=C(Nc1nc2cc(Cl)ccc2o1)[C@H]1CC[C@H](c2nnc([C@H]3C[C@@H](OC(F)(F)F)C3)o2)CC1 [Compound 241, trans-N-(5-chlorobenzo[d]oxazol-2-yl)-4-(5-(3-(cis-trifluoromethoxy)cyclobutyl)-1,3,4-oxadiazol-2-yl)cyclohexanecarboxamide] | 100 to 1000 nM |
| O=C(Nc1ccc2cc(Cl)ccc2n1)[C@H]1CC[C@H](c2nnc([C@H]3C[C@@H](C(F)(F)F)C3)o2)CC1 [Compound 248, trans-N-(6-chloroquinolin-2-yl)-4-(5-(cis-3-(trifluoromethyl)cyclobutyl)-1,3,4-oxadiazol-2-yl)cyclohexanecarboxamide] | 100 to 1000 nM |
| O=C(NN1CCC(c2nnc([C@H]3C[C@@H](OC(F)(F)F)C3)o2)CC1)C1CNc2cc(Cl)ccc2O1 (some centres unmarked) [Compound 252, 6-chloro-N-(4-(5-((1s,3s)-3-(trifluoromethoxy)cyclobutyl)-1,3,4-oxadiazol-2-yl)piperidin-1-yl)-3,4-dihydro-2H-benzo[b][1,4]oxazine-2-carboxamide] | < 10 nM |
| O=C(NC[C@H]1CC[C@H](c2nnc(-c3ccc(Cl)cc3)o2)CC1)[C@H]1C[C@@H](O)c2cc(Cl)ccc2O1 [Compound 253, (2R,4R)-6-chloro-N-((trans-4-(5-(4-chlorophenyl)-1,3,4-oxadiazol-2-yl)cyclohexyl)methyl)-4-hydroxychroman-2-carboxamide] | 100 to 1000 nM |

The remaining lines, values ahead:

| IC50 | SMILES |
| --- | --- |
| 100 to 1000 nM | O=C(Nc1ccc2cc(Cl)ccc2n1)[C@H]1CC[C@H](c2nnc([C@H]3CNc4cc(Cl)ccc4O3)o2)CC1 (single isomer, unassigned) [Compound 246] |
| 10 to 100 nM | O=C(Nc1ccc2cc(Cl)ccc2n1)[C@H]1CC[C@H](c2nnc(COc3ccc(Cl)cc3)o2)CC1 [Compound 40, trans-4-(5-((4-chlorophenoxy)methyl)-1,3,4-oxadiazol-2-yl)-N-(6-chloroquinolin-2-yl)cyclohexanecarboxamide] |
| 100 to 1000 nM | O=C(Nc1ccc2cc(Cl)ccc2n1)C1CCN(c2nnc([C@H]3C[C@@H](OC(F)(F)F)C3)o2)CC1 [Compound 50, N-(6-chloroquinolin-2-yl)-1-(5-(cis-3-(trifluoromethoxy)cyclobutyl)-1,3,4-oxadiazol-2-yl)piperidine-4-carboxamide] |
| 100 to 1000 nM | O=C(NCc1cc2cc(Cl)ccc2o1)[C@H]1CC[C@H](c2nnc(-c3ccc(Cl)cc3)o2)CC1 [Compound 51, trans-N-((5-chlorobenzofuran-2-yl)methyl)-4-(5-(4-chlorophenyl)-1,3,4-oxadiazol-2-yl)cyclohexanecarboxamide] |
| 10 to 100 nM | O=C(Nc1nc2cc(Cl)ccc2s1)[C@H]1CC[C@H](c2nnc([C@H]3C[C@@H](OC(F)(F)F)C3)o2)CC1 [Compound 52, trans-N-(5-chlorobenzo[d]thiazol-2-yl)-4-(5-(cis-3-(trifluoromethoxy)cyclobutyl)-1,3,4-oxadiazol-2-yl)cyclohexanecarboxamide] |
| 100 to 1000 nM | O=C(Nc1ccc2cc(Cl)ccc2n1)[C@H]1CC[C@@H](c2cnn(-c3ccc(Cl)cc3)c2)CC1 [Compound 249, cis-4-(1-(4-chlorophenyl)-1H-pyrazol-4-yl)-N-(6-chloroquinolin-2-yl)cyclohexanecarboxamide] |
| < 10 nM | O=C(NN1CCC(c2nnc([C@H]3C[C@@H](OC(F)(F)F)C3)o2)CC1)c1cc2cc(Cl)ccc2o1 [Compound 251, 5-chloro-N-(4-(5-(cis-3-(trifluoromethoxy)cyclobutyl)-1,3,4-oxadiazol-2-yl)piperidin-1-yl)benzofuran-2-carboxamide] |
